From patent publication US20040248867A1, “Novel anti-inflammatory 17α-heterocyclic-esters of 17βcarbothioate androstane derivatives” (priority 2001, published 2004)

What follows are compounds tested on progesterone receptor (assay: Screen for progesterone receptor activity (T47D alkaline phosphatase); selectivity versus glucocorticoid receptor). Conditions: further experiments (additional data); ED50 at progesterone receptor divided by ED50 at glucocorticoid receptor.
Type: cell-based, human
Experimental: The human breast cancer cell line T47D has been reported to upregulate an endogenous alkaline phosphatase in response to progestins (Di Lorenzo et al., Cancer Research (1991) 51, 4470-4475. T47D cells were seeded into 96 well plates at a density of 1×10^5 cells per well and grown overnight at 37° C. Steroids were dissolved in DMSO, added to the cells (final DMSO concentration 0.7%), and incubated for 24 hours at 37° C. The cells were then washed with PBS and lysed with RIPA buffer (1% IGEPAL, 0.5% Na deoxycholate, 0.1% SDS in phosphate buffered saline). Alkaline phosphatase activity was measured spectrophotometrically (405 nm) using p-nitrophenylphosphate (1.5 mg/ml) as a substrate dissolved in 1M diethanolamine, 0.28M NaCl, 0.5 mM MgCl2. Dose response curves were constructed from which EC50 values were estimated.
Compounds were tested for progesterone activity in accordance with the above screen and the selectivity was determined by dividing the ED50 at the progesterone receptor by the ED50 at the glucocorticoid receptor.

First: CC1CC2C3CC(F)C4=CC(=O)C=CC4(C)C3(F)C(O)CC2(C)C1(OC(=O)C1(C)OCCO1)C(=O)SCF (stereo not drawn) [Example 11, 6α,9α-Difluoro-11β-hydroxy-16α-methyl-17α-(2-methyl-1,3-dioxolan-2-ylcarbonyl)oxy-3-oxo-androsta-1,4-diene-17β-carbothioic acid S-fluoromethyl ester]
Second: CC1CC2C3CC(F)C4=CC(=O)C=CC4(C)C3(F)C(O)CC2(C)C1(OC(=O)C1(C)CCCO1)C(=O)SCF (stereo not drawn) [Example 8B, 6α,9α-Difluoro-11β-hydroxy-16α-methyl-3-oxo-17-(2-methyl-tetrahydrofuran-2-ylcarbonyl)oxy-androsta-1,4-diene-17β-carbothioic acid S-fluoromethyl ester]
The Selectivity of the first is lower: 1620 for the first, 63855 for the second.

First: CC1CC2C3CC(F)C4=CC(=O)C=CC4(C)C3(F)C(O)CC2(C)C1(OC(=O)C1(C)CCCS1)C(=O)SCF (stereo not drawn) [Example 13A, 6α,9α-Difluoro-11β-hydroxy-16α-methyl-3-oxo-17α-(2-methyl-tetrahydrothiophen-2-ylcarbonyl)oxy-androsta-1,4-diene-17β-carbothioic acid S-fluoromethyl ester]
Second: CC1CC2C3CC(F)C4=CC(=O)C=CC4(C)C3(F)C(O)CC2(C)C1(OC(=O)C1(C)CCCO1)C(=O)SCF (stereo not drawn) [Example 8A, 6α,9α-Difluoro-11β-hydroxy-16α-methyl-3-oxo-17-(2-methyl-tetrahydrofuran-2-ylcarbonyl)oxy-androsta-1,4-diene-17β-carbothioic acid S-fluoromethyl ester]
The Selectivity of the first is lower: 2650 for the first, 49425 for the second.

Going from `CC1CC2C3CC(F)C4=CC(=O)C=CC4(C)C3(F)C(O)CC2(C)C1(OC(=O)C1CCCO1)C(=O)SCF` (stereo not drawn) [Example 2, 6α,9α-Difluoro-11β-hydroxy-16α-methyl-3-oxo-17α-(tetrahydrofuran-2R-ylcarbonyl)oxy-androsta-1,4-diene-17β-carbothioic acid S-fluoromethyl ester] to `CC1CC2C3CC(F)C4=CC(=O)C=CC4(C)C3(F)C(O)CC2(C)C1(OC(=O)C1CSC1)C(=O)SCF` (stereo not drawn) [Example 6, 6α,9α-Difluoro-11β-hydroxy-16α-methyl-3-oxo-17α-(thietan-3-ylcarbonyl)oxy-androsta-1,4-diene-17β-carbothioic acid S-fluoromethyl ester], the Selectivity falls from 1099 to 500.

First: CC1CC2C3CC(F)C4=CC(=O)C=CC4(C)C3(F)C(O)CC2(C)C1(OC(=O)C1(C)CCCS1)C(=O)SCF (stereo not drawn) [Example 13B, 6α,9α-Difluoro-11β-hydroxy-16α-methyl-3-oxo-17α-(2-methyl-tetrahydrothiophen-2-ylcarbonyl)oxy-androsta-1,4-diene-17β-carbothioic acid S-fluoromethyl ester]
Second: CCC(=O)O[C@]1(C(=O)SCF)[C@H](C)C[C@H]2[C@@H]3C[C@H](F)C4=CC(=O)C=C[C@]4(C)[C@@]3(F)[C@@H](O)C[C@@]21C [Fluticasone propionate, 6α,9α-Difluoro-17α-(1-oxopropoxy)-11β-hydroxy-16α-methyl-3-oxo-androsta-1,4-diene-17β-carbothioic acid S-fluoromethyl ester, reference compound]
The Selectivity of the first is higher: 1955 for the first, 82 for the second.

`CC1CC2C3CC(F)C4=CC(=O)C=CC4(C)C3(F)C(O)CC2(C)C1(OC(=O)C1SCCS1)C(=O)SCF` (stereo not drawn) [Example 4, 6α,9α-Difluoro-17α-(1,3-dithiolan-2-ylcarbonyl)oxy-11β-hydroxy-16α-methyl-3-oxo-androsta-1,4-diene-17β-carbothioic acid S-fluoromethyl ester] gave a Selectivity of 1192.
